Laboratory results as given in patent US9809640B2, “ApoE peptide dimers and uses thereof” (priority 2010, dated 2017).
Positions of bridges follow the written chain, without caps; N, C: chain ends. Chains are numbered I, II in the order given.

What was measured:
[1] = tested on: B-CLL cells; test: Cytotoxicity on patient-derived B-CLL cells (MTS assay)
Source text: FIG. 5A: Dose response curves for COG449 cytotoxicity on CLL cells from 4 leukemia patients. Human CLL cells were isolated from blood samples and assayed for COG449 cytotoxicity. […] FIG. 5B: Dose response curves for COG445 on CLL cells from 7 patients or normal B-cells from 5 patients. Human CLL cells and PBMC were isolated and assayed for cytotoxicity of COG445.
Blood from CLL patients was collected and CD5+/CD19+ CLL cells were isolated using the RosetteSep™ Human B-Cell Enrichment Cocktail, according to the manufacturer's instructions, and treated with COG compounds. Compounds were applied to B-CLL cells (2.5×10^5 cells/well in a 96 well plate), after which the cells were treated for 72 hours.
Normal B-cells from volunteers and B-CLL cells from patients are isolated using the RosetteSep™ Human B Cell Enrichment Cocktail according to the manufacturer's instructions. This method depletes whole blood of T cells, monocytes, and NK cells using a proprietary antibody cocktail that cross-links unwanted cells in human whole blood to multiple red blood cells (RBCs) forming immunorosettes. This increases the density of the unwanted (rosetted) cells, such that they pellet along with the free RBCs when centrifuged over a buoyant density medium such as Ficoll-Paque®. This leaves the highly enriched B-cell or B-CLL cells at the interface between Ficoll and the plasma. The antibodies in the cocktail contain […] and anti-CD16 antibodies to remove T cells, monocytes, and NK cells, respectively. The purity of these B-cell and B-CLL preparations is then determined by flow cytometry.
For cytotoxicity assays, 3×10^6 CLL cells/well are cultured in 24 well tissue culture plates in 1.5 mL of Hybridoma SFM™ (Gibco, Long Island, N.Y.) as described by Levesque et al. (2001, 2003). All cultures are incubated at 37° C., 5% CO2 in air.

[2] = tested on: MDA-MB-231 breast cancer cells; type: cell-based; conditions: MB231, ~24 hours
Description: FIG. 14A: Dose response curve of COG445 on proliferation of U87 (open circles) and MDA-MB-231 (filled circles) cells as measured by MTT reduction. FIG. 14B: Dose response curve of COG445 on proliferation of MDA-MB-231 cells as measured by cell count.
Next, we examined the potency of an ApoE peptide dimer versus the monomeric form on proliferation of the MDA-MB-231 breast cancer cell line. MDA-MB-231 cells were treated with various concentrations of either COG435 (monomer; SEQ ID NO: 90) or COG493 (a BMOE-linked dimer of COG 435) peptides for 48 hours. Following peptide treatment, cells were quantified using a MTT assay.
Because COG445 inhibited Akt activation and downstream signaling, we examined the effects of COG445 on cellular proliferation. Adherent MB231 and U87 cells were grown for ˜24 hours in the presence of COG445 and cellular proliferation was measured by MTT reduction. […] Furthermore, COG445 inhibited MB231 cellular proliferation as determined by cell count (FIG. 14B). Approximately 6×10^4 cells were plated in growth media (RPMI+10% FBS) for 24-hours with increasing concentrations of COG445. […] However at concentrations ≧1 μM COG445, there appears to be a loss of cells. This is partially explained by decreased proliferation, although it is possible that the rate of cellular degradation was increased in the presence of COG445.

[3] = tested on: U87MG glioblastoma cells; type: cell-based; conditions: U87, ~24 hours

“I: Ac-RQIKIWFQNRRMKWKKCLRVRLASHLRKLRKRLL-NH2 / II: Ac-RQIKIWFQNRRMKWKKCLRVRLASHLRKLRKRLL-NH2 (disulfide I:17-II:17) [COG445, COG112-C-C-COG112]” was tested, and the “Fold Change” value ([1]; CLL EC50 relative to COG056 (rev133) = 1.0) was 117.3, the EC50 ([1]; read-out: ED50 for cytotoxicity of CLL cells, purified disulfide dimer, dimer molecular weight) was 110 nM and the “proliferation by MTT reduction” value [2] was “dose-dependent decrease”. The “proliferation by MTT reduction” value [3] was “dose-dependent decrease”.
